Assays:
Assay in all cases: KAM-matrix competition in K562 lysate;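 for 0.001 uM KAM: median log10 fold change of treatment over DMSO control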;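 for 0.01 uM KAM: median log10 fold change of treatment over DMSO control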;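 for 0.1 uM KAM: median log10 fold change of treatment over DMSO control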;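 for 1 uM KAM: median log10 fold change of treatment over DMSO control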;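 for 10 uM KAM: median log10 fold change of treatment over DMSO control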
Type in all cases: binding
BUB1 = target: T1, BUB1 (Homo sapiens, UniProt O43683);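 for 0.001 uM KAM: median log10 fold change of treatment over DMSO control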;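 for 0.01 uM KAM: median log10 fold change of treatment over DMSO control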;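 for 0.1 uM KAM: median log10 fold change of treatment over DMSO control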;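 for 1 uM KAM: median log10 fold change of treatment over DMSO control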;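 for 10 uM KAM: median log10 fold change of treatment over DMSO control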
T1 construct: endogenous in cells; host or cells: K562
Method: (§1) Supplement 12953_2017_125_MOESM1_ESM.zip/MS_Supp Info.xlsx, sheet "KAM" | column: 10 uM KAM; 1 uM KAM; 0.1 uM KAM; 0.01 uM KAM; 0.001 uM KAM; RB50

CDC7 = target: T2, CDC7 (Homo sapiens, UniProt O00311);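 for 0.001 uM KAM: median log10 fold change of treatment over DMSO control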;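 for 0.01 uM KAM: median log10 fold change of treatment over DMSO control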;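 for 0.1 uM KAM: median log10 fold change of treatment over DMSO control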;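 for 1 uM KAM: median log10 fold change of treatment over DMSO control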;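 for 10 uM KAM: median log10 fold change of treatment over DMSO control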
T2 construct: endogenous in cells; host or cells: K562 lysate
Method: as §1

CLK2 = target: T3, CLK2 (Homo sapiens, UniProt P49760);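 for 0.001 uM KAM: median log10 fold change of treatment over DMSO control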;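 for 0.01 uM KAM: median log10 fold change of treatment over DMSO control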;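 for 0.1 uM KAM: median log10 fold change of treatment over DMSO control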;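 for 1 uM KAM: median log10 fold change of treatment over DMSO control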;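 for 10 uM KAM: median log10 fold change of treatment over DMSO control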
T3 construct: endogenous in cells; host or cells: K562
Method: as §1

MAP3K1 = target: T4, MAP3K1 (Homo sapiens, UniProt Q13233)
T4 construct: endogenous in cells; host or cells: K562 cell lysate
Method: as §1

MAPKAPK2 = target: T5, MAPKAPK2 (Homo sapiens, UniProt P49137);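 for 0.001 uM KAM: median log10 fold change of treatment over DMSO control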;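 for 0.01 uM KAM: median log10 fold change of treatment over DMSO control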;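 for 0.1 uM KAM: median log10 fold change of treatment over DMSO control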;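 for 1 uM KAM: median log10 fold change of treatment over DMSO control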;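 for 10 uM KAM: median log10 fold change of treatment over DMSO control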
T5 construct: endogenous in cells; host or cells: K562
Method: as §1

NTRK1 = target: T6, NTRK1 (Homo sapiens, UniProt P04629)
T6 construct: endogenous in cells; host or cells: K562
Method: as §1

PEAK1 = target: T7, PEAK1 (Homo sapiens, UniProt Q9H792);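 for 0.001 uM KAM: median log10 fold change of treatment over DMSO control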;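 for 0.01 uM KAM: median log10 fold change of treatment over DMSO control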;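 for 0.1 uM KAM: median log10 fold change of treatment over DMSO control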;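 for 1 uM KAM: median log10 fold change of treatment over DMSO control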;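 for 10 uM KAM: median log10 fold change of treatment over DMSO control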
T7 construct: endogenous in cells; host or cells: K562
Method: as §1

RPS6KA4 = target: T8, RPS6KA4 (Homo sapiens, UniProt O75676)
T8 construct: endogenous in cells; host or cells: K562
Method: as §1

SMG1 = target: T9, SMG1 (Homo sapiens, UniProt Q96Q15);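 for 0.001 uM KAM: median log10 fold change of treatment over DMSO control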;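 for 0.01 uM KAM: median log10 fold change of treatment over DMSO control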;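 for 0.1 uM KAM: median log10 fold change of treatment over DMSO control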;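 for 1 uM KAM: median log10 fold change of treatment over DMSO control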;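 for 10 uM KAM: median log10 fold change of treatment over DMSO control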
T9 construct: endogenous in cells; host or cells: K562
Method: as §1

STK3 = target: T10, STK3 (Homo sapiens, UniProt Q13188)
T10 construct: endogenous in cells; host or cells: K562 cell lysate
T10 sequence (Q13188 1-491): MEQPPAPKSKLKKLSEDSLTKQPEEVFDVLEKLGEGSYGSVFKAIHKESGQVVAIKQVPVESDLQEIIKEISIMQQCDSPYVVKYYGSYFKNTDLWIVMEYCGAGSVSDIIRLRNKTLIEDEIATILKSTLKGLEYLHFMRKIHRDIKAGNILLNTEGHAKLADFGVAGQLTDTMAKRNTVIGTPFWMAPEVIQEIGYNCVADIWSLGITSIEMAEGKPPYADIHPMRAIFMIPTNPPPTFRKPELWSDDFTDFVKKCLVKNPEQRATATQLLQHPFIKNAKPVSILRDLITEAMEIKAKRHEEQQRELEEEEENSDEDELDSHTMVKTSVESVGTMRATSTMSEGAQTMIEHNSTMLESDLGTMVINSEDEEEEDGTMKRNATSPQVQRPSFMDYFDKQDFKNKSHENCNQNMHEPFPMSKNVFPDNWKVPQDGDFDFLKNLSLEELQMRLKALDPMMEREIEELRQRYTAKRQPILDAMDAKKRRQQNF
Method: as §1

TGFBR1 = target: T11, TGFBR1 (Homo sapiens, UniProt P36897)
T11 construct: endogenous in cells; host or cells: K562
T11 sequence (P36897 34-503): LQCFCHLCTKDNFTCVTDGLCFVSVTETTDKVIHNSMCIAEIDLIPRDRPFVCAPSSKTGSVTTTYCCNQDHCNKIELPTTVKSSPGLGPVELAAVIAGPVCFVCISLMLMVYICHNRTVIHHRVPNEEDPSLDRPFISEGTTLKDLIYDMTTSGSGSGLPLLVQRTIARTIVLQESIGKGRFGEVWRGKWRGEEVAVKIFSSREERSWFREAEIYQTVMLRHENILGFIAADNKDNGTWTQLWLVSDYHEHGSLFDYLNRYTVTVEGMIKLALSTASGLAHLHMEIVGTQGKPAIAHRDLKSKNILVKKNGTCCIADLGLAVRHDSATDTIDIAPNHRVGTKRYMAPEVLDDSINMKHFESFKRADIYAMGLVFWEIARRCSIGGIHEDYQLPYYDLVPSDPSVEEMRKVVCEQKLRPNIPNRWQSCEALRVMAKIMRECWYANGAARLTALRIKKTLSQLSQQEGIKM
Method: as §1

TRIM28 = target: T12, TRIM28 (Homo sapiens, UniProt Q13263);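 for 0.001 uM KAM: median log10 fold change of treatment over DMSO control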;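 for 0.01 uM KAM: median log10 fold change of treatment over DMSO control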;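 for 0.1 uM KAM: median log10 fold change of treatment over DMSO control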;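 for 1 uM KAM: median log10 fold change of treatment over DMSO control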;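 for 10 uM KAM: median log10 fold change of treatment over DMSO control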
T12 construct: endogenous in cells; host or cells: K562
Method: as §1

[1] = KAM 0.001-10 uM, read-out: RB50 (the source's name)
[2] = read-out: RB50 (the source's name)

## N#CCc1ccc(Nc2nc(NCCCN)cc(Nc3cc(C4CC4)[nH]n3)n2)cc1 [KAM]
BUB1; [1]
  IC50: > 10 µM
BUB1; relative to 0 uM KAM = 0
  0.001 uM KAM: -0.05097
  0.01 uM KAM: -0.002823
  0.1 uM KAM: -0.07998
  1 uM KAM: -0.1399
  10 uM KAM: -0.1894
CDC7; [1]
  IC50: > 10 µM
CDC7; relative to 0 uM KAM = 0
  0.001 uM KAM: -0.007298
  0.01 uM KAM: -0.03198
  0.1 uM KAM: -0.1182
  1 uM KAM: -0.2032
  10 uM KAM: -0.1853
CLK2; [1]
  IC50: > 10 µM
CLK2; relative to 0 uM KAM = 0
  0.001 uM KAM: -0.009153
  0.01 uM KAM: 0.05043
  0.1 uM KAM: -0.05281
  1 uM KAM: -0.09929
  10 uM KAM: -0.1362
MAP3K1; 0.001 uM KAM
  median Log10 fold change: -0.0387
MAP3K1; 0.01 uM KAM
  median Log10 fold change: -0.001908
MAP3K1; 0.1 uM KAM
  median Log10 fold change: -0.0773
MAP3K1; 1 uM KAM
  median Log10 fold change: -0.1722
MAP3K1; 10 uM KAM
  median Log10 fold change: -0.3697
MAP3K1; [2]
  IC50: 4.53 µM
MAPKAPK2; [1]
  IC50: > 10 µM
MAPKAPK2; relative to 0 uM KAM = 0
  0.001 uM KAM: 0.05207
  0.01 uM KAM: -0.01973
  0.1 uM KAM: 0.02471
  1 uM KAM: 0.08157
  10 uM KAM: 0.02045
NTRK1; 0.001 uM KAM
  median Log10 fold change: -0.002125
NTRK1; 0.01 uM KAM
  median Log10 fold change: -0.003481
NTRK1; 0.1 uM KAM
  median Log10 fold change: -0.123
NTRK1; 1 uM KAM
  median Log10 fold change: -0.3463
NTRK1; 10 uM KAM
  median Log10 fold change: -0.5086
NTRK1; [2]
  IC50: 0.869 µM
PEAK1; [1]
  IC50: > 10 µM
PEAK1; relative to 0 uM KAM = 0
  0.001 uM KAM: 0.04051
  0.01 uM KAM: 0.04298
  0.1 uM KAM: 0.03477
  1 uM KAM: 0.09337
  10 uM KAM: 0.04238
RPS6KA4; 0.001 uM KAM
  median Log10 fold change: 0.007656
RPS6KA4; 0.01 uM KAM
  median Log10 fold change: -0.02452
RPS6KA4; 0.1 uM KAM
  median Log10 fold change: -0.1561
RPS6KA4; 1 uM KAM
  median Log10 fold change: -0.4146
RPS6KA4; 10 uM KAM
  median Log10 fold change: -0.4828
RPS6KA4; [2]
  IC50: 0.558 µM
SMG1; [1]
  IC50: > 10 µM
SMG1; relative to 0 uM KAM = 0
  0.001 uM KAM: -0.09325
  0.01 uM KAM: 0.027
  0.1 uM KAM: 0.0044
  1 uM KAM: 0.06163
  10 uM KAM: 0.05027
STK3; 0.001 uM KAM
  median Log10 fold change: -0.01987
STK3; 0.01 uM KAM
  median Log10 fold change: -0.0374
STK3; 0.1 uM KAM
  median Log10 fold change: -0.2245
STK3; 1 uM KAM
  median Log10 fold change: -0.1979
STK3; 10 uM KAM
  median Log10 fold change: -0.3452
STK3; [2]
  IC50: 3.72 µM
TGFBR1; 0.001 uM KAM
  median Log10 fold change: 0.003086
TGFBR1; 0.01 uM KAM
  median Log10 fold change: -0.03819
TGFBR1; 0.1 uM KAM
  median Log10 fold change: -0.2662
TGFBR1; 1 uM KAM
  median Log10 fold change: -0.4673
TGFBR1; 10 uM KAM
  median Log10 fold change: -0.5096
TGFBR1; [2]
  IC50: 0.202 µM
TRIM28; [1]
  IC50: > 10 µM
TRIM28; relative to 0 uM KAM = 0
  0.001 uM KAM: 0.05535
  0.01 uM KAM: 0.00293
  0.1 uM KAM: 0.1066
  1 uM KAM: 0.08268
  10 uM KAM: 0.08032

Source: publication PMC5513037, “Examining the influence of specificity ligands and ATP-competitive ligands on the overall effectiveness of bivalent kinase inhibitors” (Proteome Science, 2017)
